pEC50: −log10 of the molar value.
Assays:
[1] = Fraction unbound in rat plasma; type: ADME, cell-free
[2] = target: T1, Potassium channel subfamily K member 10 (Homo sapiens) (UniProt P57789); assay: Activation of human TREK2 at 30 uM by thallium flux mobilization assay relative to control; settings: filed as activator
T1 sequence (whole entry): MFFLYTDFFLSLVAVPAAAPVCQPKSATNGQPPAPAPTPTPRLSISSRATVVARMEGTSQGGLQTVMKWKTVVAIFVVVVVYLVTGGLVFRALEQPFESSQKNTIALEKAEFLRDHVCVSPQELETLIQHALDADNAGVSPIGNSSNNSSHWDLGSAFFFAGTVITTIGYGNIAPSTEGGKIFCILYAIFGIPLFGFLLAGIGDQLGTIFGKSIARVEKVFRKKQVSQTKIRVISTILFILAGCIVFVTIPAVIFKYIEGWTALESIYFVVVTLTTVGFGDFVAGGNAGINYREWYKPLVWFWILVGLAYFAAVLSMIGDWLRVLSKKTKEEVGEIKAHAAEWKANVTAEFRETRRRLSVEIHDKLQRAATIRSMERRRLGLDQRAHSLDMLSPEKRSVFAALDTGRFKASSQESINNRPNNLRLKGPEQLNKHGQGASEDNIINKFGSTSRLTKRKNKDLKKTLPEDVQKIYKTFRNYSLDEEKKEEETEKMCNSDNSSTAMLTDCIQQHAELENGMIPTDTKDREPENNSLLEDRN

[3] = target: T2, Potassium channel subfamily K member 2 (Homo sapiens, UniProt O95069); assay: Activation of human TREK1 by thallium flux mobilization assay
T2 sequence (O95069 whole entry): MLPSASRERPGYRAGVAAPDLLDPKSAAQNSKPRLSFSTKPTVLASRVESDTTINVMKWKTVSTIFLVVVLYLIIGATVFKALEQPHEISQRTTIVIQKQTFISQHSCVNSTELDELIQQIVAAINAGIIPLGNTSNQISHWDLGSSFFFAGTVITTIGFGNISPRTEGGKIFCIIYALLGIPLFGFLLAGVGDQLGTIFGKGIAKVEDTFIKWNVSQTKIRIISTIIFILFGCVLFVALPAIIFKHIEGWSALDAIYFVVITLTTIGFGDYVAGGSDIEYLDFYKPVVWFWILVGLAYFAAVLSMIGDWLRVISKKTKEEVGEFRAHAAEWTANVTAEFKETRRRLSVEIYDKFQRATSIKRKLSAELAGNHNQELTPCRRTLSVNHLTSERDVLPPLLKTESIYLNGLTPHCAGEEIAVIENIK

[4] = target: T3, Potassium channel subfamily K member 10 (Homo sapiens, UniProt P57789); assay: Activation of human TREK2 by thallium flux mobilization assay
T3 sequence (P57789 whole entry): T1 sequence (whole entry)

[5] = Half life in rat at 0.05 mg/kg, iv administered as cassette dose; type: ADME, organism-based; settings: in vivo
[6] = target: T4, Potassium channel subfamily K member 2 (Homo sapiens) (UniProt O95069); assay: Activation of human TREK1 at 30 uM by thallium flux mobilization assay relative to control; settings: filed as activator
T4 sequence (whole entry): T2 sequence (O95069 whole entry)

[7] = Fraction unbound in human plasma; type: ADME, cell-free

fraction unbound [1]: 0.001
Activity [2]: 133%
pEC50 [3]: 5.28
pEC50 [4]: 5.11
half-life [5]: 3 min
Activity [6]: 109%
fraction unbound [7]: < 0.001
Compound: c1ccc(-c2nnn[nH]2)c(Nc2cccc3c2CCCC3)c1

— ChEMBL document CHEMBL4665650, “Towards a TREK-1/2 (TWIK-Related K+ Channel 1 and 2) dual activator tool compound: Multi-dimensional optimization of BL-1249” (Bioorg Med Chem Lett, 2019)
